Results from the supplement of paper PMC10307832.

Key:
Experiment in all cases: relative viability (nuclei count vs DMSO), 5 days (fraction); higher = more cells survive
[1] = compound: C1=CC2=C(C=C(C(=C2N=C1)O)N=NC3=CC4=C(C=C3)C=C(C=C4)S(=O)(=O)O)S(=O)(=O)O + O=C(CCCCCCC(=O)Nc1ccccc1)NO [Vorinostat] (partner 1 µM)
Method in brief: (§1)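 Each reported value is a median over duplicate plates. It expresses relative viability: treated-well nuclei count divided by vehicle-well nuclei count. Lung cancer cell lines in 1536-well plates were dosed by pin tool a day after seeding, alone with one drug or with a fixed anchor-drug dose plus five library-drug doses (not always all listed) in √10 steps, and nuclei were counted after 5 days.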

AT-7519 + AZD7762 = compound: O=C(NC1CCNCC1)c1n[nH]cc1NC(=O)c1c(Cl)cccc1Cl [AT-7519] + NC(=O)Nc1cc(-c2cccc(F)c2)sc1C(=O)N[C@H]1CCCNC1 [AZD7762] (partner 0.2 µM)
Method in brief: as §1

AT-7519 + Phenformin = compound: O=C(NC1CCNCC1)c1n[nH]cc1NC(=O)c1c(Cl)cccc1Cl [AT-7519] + N=C(N)NC(=N)NCCc1ccccc1 [Phenformin] (partner 250 µM)
Method in brief: as §1

[2] = compound: C1=CC2=C(C=C(C(=C2N=C1)O)N=NC3=CC4=C(C=C3)C=C(C=C4)S(=O)(=O)O)S(=O)(=O)O + CC(C)C[C@H](NC(=O)[C@H](Cc1ccccc1)NC(=O)c1cnccn1)B(O)O [Bortezomib] (partner 0.002 µM)
Method in brief: as §1

Row | Cell Line | relative viability ([1]; first compound 0.08 µM) | relative viability ([1]; first compound 0.253 µM) | relative viability ([1]; first compound 0.8 µM) | relative viability ([1]; first compound 2.53 µM) | relative viability ([1]; first compound 8 µM) | relative viability (AT-7519 + AZD7762; first compound 0.01 µM) | relative viability (AT-7519 + AZD7762; first compound 0.03162 µM) | relative viability (AT-7519 + AZD7762; first compound 0.3162 µM) | relative viability (AT-7519 + AZD7762; first compound 1 µM) | relative viability (AT-7519 + Phenformin; first compound 0.03162 µM) | relative viability (AT-7519 + Phenformin; first compound 0.3162 µM) | relative viability (AT-7519 + Phenformin; first compound 1 µM) | relative viability ([2]; first compound 0.08 µM) | relative viability ([2]; first compound 0.253 µM) | relative viability ([2]; first compound 0.8 µM) | relative viability ([2]; first compound 2.53 µM) | relative viability ([2]; first compound 8 µM) | relative viability (AT-7519 + Phenformin; first compound 0.01 µM)
1 | NCI-H522 | 0.98 | 1.01 | 0.943 | 0.999 | 0.977 | 1 | 0.661 | 0.859 | 0.904 | 0.681 | 0.662 | 0.675 |  |  |  |  |  | 
2 | NCI-H838 | 0.755 | 0.681 | 0.712 | 0.688 | 0.71 | 0.925 | 0.949 | 0.936 | 0.861 | 0.552 | 0.247 | 0.0953 | 0.753 | 0.909 | 0.674 | 0.633 | 0.764 | 0.534
3 | SW 900 | 0.624 | 0.399 | 0.604 | 0.611 | 0.426 | 0.637 | 0.616 | 0.677 | 0.477 | 0.645 | 0.604 | 0.196 |  |  |  |  |  | 0.697
4 | A549 |  |  |  |  |  |  |  |  |  | 0.153 | 0.158 | 0.0741 |  |  |  |  |  | 0.131
5 | A-427 | 0.894 | 0.821 | 0.796 | 0.861 | 0.924 | 0.791 | 0.627 | 0.883 | 0.502 | 0.315 | 0.238 | 0.222 | 0.956 | 1.02 | 0.981 | 1.04 | 0.966 | 0.233
6 | NCI-H1792 |  |  |  |  |  | 0.759 | 0.554 | 0.571 | 0.467 | 0.22 | 0.315 | 0.163 | 1.09 | 0.931 | 0.886 | 0.976 | 0.908 | 0.208
7 | LCLC-97TM1 | 0.593 | 0.657 | 0.632 | 0.575 | 0.715 | 0.24 | 0.294 | 0.335 | 0.394 | 0.456 | 0.42 | 0.289 | 0.815 | 0.492 | 0.525 | 0.753 | 0.395 | 0.476
8 | NCI-H1703 |  |  |  |  |  |  |  | 0.152 | 0.148 |  |  |  | 0.316 | 0.306 | 0.355 | 0.39 | 0.26 | 
9 | SK-LU-1 | 0.766 | 0.725 | 0.753 | 0.719 | 0.697 |  |  |  |  | 0.444 | 0.322 | 0.231 | 1.05 | 0.942 | 0.963 | 1.1 | 0.99 | 0.499
10 | COR-L 105 | 0.852 | 0.86 | 0.742 | 0.866 | 0.881 |  |  |  |  | 0.489 | 0.301 | 0.286 | 0.806 | 0.662 | 0.83 | 0.87 | 0.757 | 0.451
11 | Calu-6 |  |  |  |  |  |  |  |  |  |  |  |  | 0.982 | 1.07 | 1.05 | 1.06 | 1.02 | 
12 | NCI-H358 | 0.676 | 0.711 | 0.628 | 0.748 | 0.701 | 0.423 | 0.558 | 0.521 | 0.37 | 0.313 | 0.205 | 0.087 |  |  |  |  |  | 0.342
13 | NCI-H1944 | 0.52 | 0.538 | 0.525 | 0.583 | 0.477 | 0.528 | 0.472 | 0.699 | 0.479 | 0.207 | 0.197 | 0.182 |  |  |  |  |  | 0.234
14 | NCI-H1648 |  | 0.825 |  |  | 0.479 | 0.63 |  | 0.578 | 1.12 |  |  |  |  |  |  |  |  | 
15 | EBC-1 |  |  |  |  |  |  |  |  |  |  |  |  | 0.648 | 0.515 | 0.585 | 0.494 | 0.636 | 
16 | NCI-H1299 |  |  |  |  |  |  |  |  |  |  |  |  | 1.06 | 0.99 | 0.999 | 1.02 | 1.03 | 
17 | NCI-H2228 | 0.966 | 0.518 | 0.468 | 0.652 | 0.589 |  |  |  |  | 0.305 | 0.193 | 0.165 | 1.17 | 1.01 | 0.917 | 1.01 | 0.96 | 0.298
18 | NCI-H2342 | 0.834 | 0.709 | 0.72 | 0.695 | 0.688 | 0.514 | 0.507 | 0.508 | 0.447 | 0.605 | 0.509 | 0.512 |  |  |  |  |  | 0.595
19 | IA-LM | 1.09 | 0.95 | 0.97 | 1.04 | 0.935 |  |  |  |  |  |  |  | 0.93 | 0.843 | 0.803 | 0.819 | 0.923 | 
20 | SK-MES-1 | 1.16 | 1.12 | 0.985 | 1.06 | 1.17 |  |  |  |  | 0.651 | 0.63 | 0.331 |  |  |  |  |  | 0.655
21 | NCI-H2170 | 0.975 | 0.811 | 0.862 | 0.914 | 0.784 | 0.906 | 0.892 | 0.954 | 0.75 | 0.414 | 0.423 | 0.418 |  |  |  |  |  | 0.412
22 | SW 1573 | 0.92 | 0.915 | 0.531 | 0.828 | 0.519 |  |  |  |  | 0.349 | 0.236 | 0.0778 | 0.931 | 1.02 | 1.04 | 0.976 | 1.03 | 0.421
23 | NCI-H661 | 0.765 | 0.756 | 0.783 | 0.785 | 0.796 |  |  |  |  | 0.27 | 0.249 | 0.189 | 0.838 | 0.838 | 0.769 | 0.829 | 0.809 | 0.277
24 | NCI-H1793 | 0.797 | 0.814 | 0.795 | 0.78 | 0.838 | 0.578 | 0.573 | 0.409 | 0.543 | 0.457 | 0.434 | 0.387 |  |  |  |  |  | 0.354
25 | NCI-H520 | 0.66 | 0.662 | 0.761 | 0.681 | 0.753 |  |  |  |  | 0.669 | 0.422 | 0.257 | 0.777 | 0.598 | 0.619 | 0.551 | 0.459 | 0.66
26 | NCI-H2023 | 0.844 | 0.581 | 0.621 | 0.641 | 0.633 |  |  |  |  | 0.435 | 0.321 | 0.0704 | 0.945 | 0.945 | 1.01 | 1.15 | 0.978 | 0.389
27 | NCI-H2009 | 0.691 | 0.742 | 0.759 | 0.748 | 0.53 |  |  |  |  | 0.451 | 0.472 | 0.276 | 0.909 | 0.921 | 0.965 | 0.968 | 0.916 | 0.521
